Test results as given in patent US5332427A, “Wood preservatives” (priority 1991, dated 1994).

Experiments:
Tyromyces palustris [1] = experiment: Wood weight reduction after weather resistance operation, test method of Japan Wood Preservation Association, Tyromyces palustris/Japanese cedar (Test Example 3); conditions: oil formulation, Japanese cedar, 30 weather resistance cycles, 8 weeks
Method: (§1) An oil formulation of each of the test compounds shown in Table 5 was prepared according to Formulation Example 1 and was tested based on the test method of Japan Wood Preservation Association. The summary of the test method is as follows:
(§2) The cut end surfaces of a wooden piece of Japanese beech or Japanese cedar (thickness: 5 mm, width: 20 mm, length: 40 mm; the surface of 40×20 mm is of straight grain) were sealed with an epoxy resin and the wooden piece was impregnated with the oil formulation (110±10 g/m^2 surface area), and thereafter air-dried for 20 days to prepare a test specimen. The test specimen was dipped in still water [water:wooden piece=10:1 (volume ratio)] at 25°±3° C. for 5 hours, and then the water was volatilized at 40±2° C. for 19 hours. This weather resistance operation was repeated 30 times. The test specimen after the weather resistance operation was dried at 60°±2° C. for 48 hours and then placed in a desicator for about 30 minutes, after which the weight (W3) of the test specimen was measured. The test described above was repeated for 9 wooden pieces. The test specimen was sterilized and then, placed in a culture vial in which wood rotting fungi (Coriolus versicolor/Japanese beech, Tyromyces palustris/Japanese cedar) were being cultured, in which cultivation was effected at 26°±2° C. at a humidity of 80% for 8 weeks. After 8 weeks, the test specimen was taken out of the culture vial and the mycelium and other extraneous matters were removed therefrom, after which the test specimen was dried at 60°±2° C. for 48 hours and placed in a desicator for about 30 minutes. Thereafter, the weight (W4) of the test specimen was measured. The weight reduction percentage was calculated according to the following equation: [formula]

Coriolus versicolor [2] = experiment: Wood weight reduction after weather resistance operation, test method of Japan Wood Preservation Association, Coriolus versicolor/Japanese beech (Test Example 3); conditions: oil formulation, Japanese beech, 30 weather resistance cycles, 8 weeks
Method: as §1, §2

Tyromyces palustris [3] = experiment: Mycelium growth inhibition on potato dextrose agar medium, Tyromyces palustris (Test Example 2); type: cell-based; conditions: four days after inoculation
Method: (§3) Each of the test compounds shown in Tables 3 and 4 was dissolved in a definite amount of dimethylsulfoxide to prepare a 1% W/V solution. A definite amount of the resulting formulation was added to a potato dextrose agar medium just after sterilization (using a moist heat sterilizer) and about 20 cc of the mixture was poured into a Petri dish of 9 cm in diameter and the Petri dish was placed at room temperature. After the medium was solidified, mycelium from a colony of Coriolus versicolor or Tyromyces palustris cultured previously was punched with a cork borer of 5 mm in diameter and the mycelium was inoculated at the center of the test medium. Four days after the inoculation, the diameter of colony extended from the inoculation point was measured and the percentage of mycelium growth inhibition was calculated according to the following equation: [formula]

Coriolus versicolor [4] = experiment: Mycelium growth inhibition on potato dextrose agar medium, Coriolus versicolor (Test Example 2); type: cell-based; conditions: four days after inoculation
Method: as §3

[5] = Discoloration (coloration) of oil formulation-coated filter paper under irradiation with light (Test Example 1); type: physicochemical; parameters: key: -: No discoloration (coloration); +: Slight discoloration (coloration); ++: Prominent discoloration (coloration); conditions: 1% oil formulation, 100 ml per m^2 of filter paper, light of 6000-7000 lux for 5 minutes
Method: A 1% oil formulation of each of the test compounds shown in Table 2 was prepared according to Formulation Example 1. The oil formulation was coated on a filter paper having a diameter of 5.5 cm in an amount of 100 ml of the oil formulation per m^2 of the filter paper and the filter paper was air-dried. The filter paper thus prepared was subjected to irradiation with light of 6000-7000 lux for 5 minutes and then, taken out, after which the degree of discoloration (coloration) was observed. The degree of discoloration (coloration) was determined based on the following standard.
No discoloration (coloration): -
Slight discoloration (coloration): +
Prominent discoloration (coloration): ++

Row | Compound | Average weight reduction percentage (Tyromyces palustris [1]; concentration 1.0%) [%] | Average weight reduction percentage (Coriolus versicolor [2]; concentration 1.0%) [%] | Percentage of growth inhibition for Tyromyces palustris (Tyromyces palustris [3]; 1 ppm) [Percentage] | Percentage of growth inhibition for Tyromyces palustris (Tyromyces palustris [3]; 2 ppm) [Percentage] | Percentage of growth inhibition for Tyromyces palustris (Tyromyces palustris [3]; 4 ppm) [Percentage] | Percentage of growth inhibition for Coriolus versicolor (Coriolus versicolor [4]; 1 ppm) [Percentage] | Percentage of growth inhibition for Coriolus versicolor (Coriolus versicolor [4]; 2 ppm) [Percentage] | Percentage of growth inhibition for Coriolus versicolor (Coriolus versicolor [4]; 4 ppm) [Percentage] | Degree of discoloration (coloration) [5] | Average weight reduction percentage (Tyromyces palustris [1]; concentration 0.5%) [%] | Average weight reduction percentage (Coriolus versicolor [2]; concentration 0.5%) [%]
1 | CCOC(=O)OCC(I)=C(Br)I [Compound (A), 3-Bromo-2,3-diiodo-2-propenylethyl carbonate] | 3.1 | 3.9 | 26.6 | 43.0 | 63.3 | 20.0 | 41.7 | 72.8 |  |  | 
2 | Clc1ccc(OCOCC#CI)cc1 [Compound (C), 4-Chlorophenyl-3-iodopropargyl formal] | 0.34 | 1.1 | 77.0 | 98.6 | 100 | 68.2 | 88.7 | 97.9 | ++ |  | 
3 | 3-Iodo-2-propenylbutyl carbamate [Compound (B)] | 0.78 | 7.6 | 80.5 | 88.7 | 100 | 81.3 | 91.9 | 100 | + |  | 
4 | CC(C)(C)C(O)/C(=C\c1ccc(Cl)cc1)n1cncn1 (single isomer, unassigned; (-)) [Compound (2), (-)-(E)-1-(4-chlorophenyl)-4,4-dimethyl-2-(1,2,4-triazol-1-yl)-1-penten-3-ol] |  |  | 94.6 | 98.8 | 100 | 85.3 | 87.2 | 93.9 | - |  | 
5 | CC(C)(C)C(O)/C(=C\c1ccc(Cl)cc1Cl)n1cncn1 (single isomer, unassigned; (-)) [Compound (1), (-)-(E)-1-(2,4-dichlorophenyl)-4,4-dimethyl-2-(1,2,4-triazol-1-yl)-1-penten-3-ol] | 0.19 | 0.64 | 79.1 | 93.0 | 95.6 | 86.1 | 93.9 | 98.3 | - | 0.25 | 0.70
